These results are taken from patent publication US20250215029A1 (Recludix Pharma, Inc., priority 2022, published 2025).

One assay concerns the target T1, pY641-STAT6 in PBMC (Homo sapiens, UniProt P42226).
T1 construct: Cryopreserved Peripheral Blood Mononuclear Cells (PBMC) are from AllCells; host or cells: cryopreserved PBMC
T1 sequence (P42226 1-847): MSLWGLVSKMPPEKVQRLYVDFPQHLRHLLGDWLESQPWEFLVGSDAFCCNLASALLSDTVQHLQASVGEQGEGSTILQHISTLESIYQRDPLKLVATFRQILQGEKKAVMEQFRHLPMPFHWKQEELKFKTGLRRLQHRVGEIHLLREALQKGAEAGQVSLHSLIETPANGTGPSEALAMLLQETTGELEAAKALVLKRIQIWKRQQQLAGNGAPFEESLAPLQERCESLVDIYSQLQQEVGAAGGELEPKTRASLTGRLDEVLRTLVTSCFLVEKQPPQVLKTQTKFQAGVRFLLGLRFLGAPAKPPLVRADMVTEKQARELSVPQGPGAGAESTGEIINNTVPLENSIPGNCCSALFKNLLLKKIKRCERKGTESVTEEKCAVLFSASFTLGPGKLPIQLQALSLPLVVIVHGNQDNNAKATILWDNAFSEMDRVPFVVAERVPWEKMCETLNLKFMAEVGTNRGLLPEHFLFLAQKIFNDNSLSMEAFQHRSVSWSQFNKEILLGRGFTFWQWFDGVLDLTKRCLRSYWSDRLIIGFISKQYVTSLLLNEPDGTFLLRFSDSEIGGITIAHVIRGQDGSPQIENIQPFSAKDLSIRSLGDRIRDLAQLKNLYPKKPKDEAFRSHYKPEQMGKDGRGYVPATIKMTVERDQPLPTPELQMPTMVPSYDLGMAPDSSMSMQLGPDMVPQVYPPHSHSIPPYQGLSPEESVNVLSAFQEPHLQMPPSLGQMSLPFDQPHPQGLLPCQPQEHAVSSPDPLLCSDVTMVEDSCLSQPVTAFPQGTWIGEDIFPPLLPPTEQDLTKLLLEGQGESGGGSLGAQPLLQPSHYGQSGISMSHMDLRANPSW
Description: MSD-pSTAT-PBMC Assay (pSTAT6, IL-4 stimulated). Type of assay: cell-based. Particulars: PBMC, compound 3 hrs, then 1 ng/mL IL-4 for 10 min; Table 115; read-out: STAT6. The method, boiled down: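 Cells are preincubated with compound for 3 hrs, then stimulated for 10 min, IL-4 at 1 ng/mL driving STAT6 phosphorylation and IL-6 at 10 ng/mL driving STAT3. Phospho-STAT in lysates is quantified by MSD immunoassay, and IC50 is fitted after subtracting unstimulated wells.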
As for `CCCOC(=O)[C@H](C)NP(=O)(Oc1ccccc1)[C@@H](F)c1ccc2sc(C(=O)N[C@H]3CCCC[C@H]4CC[C@@H](C(=O)N5C[C@H](c6cccc(Cl)c6)[C@@H](C#N)C56CC6)N4C3=O)cc2c1` (stereo partly shown) [Compound 344], the IC50 was less than 0.1 µM.

`CCCOC(=O)[C@H](C)NP(=O)(Oc1ccccc1)[C@@H](F)c1ccc2sc(C(=O)N[C@H]3CCCC[C@H]4CC[C@@H](C(=O)N5C[C@H](c6cccc(Cl)c6)[C@@H](C#N)C56CC6)N4C3=O)cc2c1` (stereo partly shown) [Compound 345]: the IC50 was less than 0.1 µM.

Staying with this assay, now noted: STAT6, PBMC, compound 3 hrs, then 1 ng/mL IL-4 for 10 min; Table 115.
`CCCOC(=O)[C@H](C)NP(=O)(Oc1ccccc1)[C@@H](F)c1ccc2sc(C(=O)N[C@H]3CCCC[C@H]4CC[C@@H](C(=O)N5C(=O)N(c6cncc(C(F)(F)F)c6)C(=O)C56CC6)N4C3=O)cc2c1` (stereo partly drawn) [Compound 330, propyl (((R)-(2-(((3S,6S,10aS)-3-(5,7-dioxo-6-(5-(trifluoromethyl)pyridin-3-yl)-4,6-diazaspiro[2.4]heptane-4-carbonyl)-5-oxodecahydropyrrolo [1,2-a]azocin-6-yl)carbamoyl)benzo [b]thiophen-5-yl)fluoromethyl) (phenoxy)phosphoryl)-L-alaninate]: the IC50 is more than 3 µM.

The molecule `CCCOC(=O)[C@H](C)NP(=O)(Oc1ccccc1)[C@@H](F)c1ccc2sc(C(=O)N[C@H]3CCCC[C@H]4CC[C@@H](C(=O)N5C(=O)N(c6cncc(OC)c6)C(=O)C56CC6)N4C3=O)cc2c1` (stereo partly drawn) [Compound 331, propyl (((R)-fluoro(2-(((3S,6S,10aS)-3-(6-(5-methoxypyridin-3-yl)-5,7-dioxo-4,6-diazaspiro[2.4]heptane-4-carbonyl)-5-oxodecahydropyrrolo [1,2-a]azocin-6-yl)carbamoyl)benzo [b]thiophen-5-yl)methyl)(phenoxy)phosphoryl)-L-alaninate] yielded an IC50 of 1 to 3 µM.

On to `CCCOC(=O)[C@H](C)NP(=O)(Oc1ccccc1)[C@@H](F)c1ccc2sc(C(=O)N[C@H]3CCCC[C@H]4CC[C@@H](C(=O)N5C(=O)N(c6ccc(C(F)F)nc6)C(=O)C56CC6)N4C3=O)cc2c1` (stereo partly drawn) [Compound 332, propyl (((R)-(2-(((3S,6S,10aS)-3-(6-(6-(difluoromethyl)pyridin-3-yl)-5,7-dioxo-4,6-diazaspiro[2.4]heptane-4-carbonyl)-5-oxodecahydropyrrolo [1,2-a]azocin-6-yl)carbamoyl)benzo [b]thiophen-5-yl)fluoromethyl) (phenoxy)phosphoryl)-L-alaninate], for which the IC50 is more than 3 µM.

`CCCOC(=O)[C@H](C)NP(=O)(Oc1ccccc1)[C@@H](F)c1ccc2sc(C(=O)N[C@H]3CCCC[C@H]4CC[C@@H](C(=O)N5C(=O)N(c6cncc(C(F)F)c6)C(=O)C56CC6)N4C3=O)cc2c1` (stereo partly drawn) [Compound 333, propyl (((R)-(2-(((3S,6S,10aS)-3-(6-(5-(difluoromethyl)pyridin-3-yl)-5,7-dioxo-4,6-diazaspiro[2.4]heptane-4-carbonyl)-5-oxodecahydropyrrolo [1,2-a]azocin-6-yl)carbamoyl)benzo [b]thiophen-5-yl)fluoromethyl) (phenoxy)phosphoryl)-L-alaninate] gave an IC50 of more than 3 µM.

For `CCCOC(=O)[C@H](C)NP(=O)(Oc1ccccc1)[C@@H](F)c1ccc2sc(C(=O)N[C@H]3CCCC[C@H]4CC[C@@H](C(=O)N5C(=O)N(c6cnccc6C)C(=O)C56CC6)N4C3=O)cc2c1` (stereo partly drawn) [Compound 334, propyl (((R)-fluoro(2-(((3S,6S,10aS)-3-(6-(4-methylpyridin-3-yl)-5,7-dioxo-4,6-diazaspiro[2.4]heptane-4-carbonyl)-5-oxodecahydropyrrolo [1,2-a]azocin-6-yl)carbamoyl)benzo [b]thiophen-5-yl)methyl)(phenoxy)phosphoryl)-L-alaninate], the IC50 is less than 0.1 µM.

As to `CCCOC(=O)[C@H](C)NP(=O)(Oc1ccccc1)[C@@H](F)c1ccc2sc(C(=O)N[C@H]3CCC[C@H]4CC[C@@H](C(=O)N5C[C@@H](c6ccn(C)c(=O)c6)CC56CC6)N4C3=O)cc2c1` (stereo partly drawn) [Compound 346, propyl (((R)-fluoro(2-(((3S,6S,9aS)-3-((R)-6-(1-methyl-2-oxo-1,2-dihydropyridin-4-yl)-4-azaspiro[2.4]heptane-4-carbonyl)-5-oxooctahydro-1H-pyrrolo[1,2-a]azepin-6-yl)carbamoyl)benzo [b]thiophen-5-yl)methyl)(phenoxy)phosphoryl)-L-alaninate], the IC50 is less than 0.1 µM.

In the case of `CCCOC(=O)[C@H](C)NP(=O)(Oc1ccccc1)[C@H](F)c1ccc2ccc(C(=O)N[C@H]3CCCC[C@H]4CC[C@@H](C(=O)N5C[C@H](c6ccccc6)[C@@H](C#N)C56CC6)N4C3=O)cc2c1` (stereo partly drawn) [Compound 347, propyl (((S)-(7-(((3S,6S,10aS)-3-((6S,7R)-7-cyano-6-phenyl-4-azaspiro[2.4]heptane-4-carbonyl)-5-oxodecahydropyrrolo [1,2-a]azocin-6-yl)carbamoyl)naphthalen-2-yl)fluoromethyl) (phenoxy)phosphoryl)-L-alaninate], the IC50 was less than 0.1 µM.

In the case of `COCCOC(=O)[C@H](COC)NP(=O)(Oc1ccccc1)[C@H](F)c1ccc2sc(C(=O)N[C@H]3CCC[C@H]4CC[C@@H](C(=O)N5C[C@H](c6ccccc6)[C@@H](C#N)C56CC6)N4C3=O)cc2c1` (stereo partly drawn) [Compound 348, 2-methoxyethyl N-(((S)-(2-(((3S,6S,9aS)-3-((6S,7R)-7-cyano-6-phenyl-4-azaspiro[2.4]heptane-4-carbonyl)-5-oxooctahydro-1H-pyrrolo[1,2-a]azepin-6-yl)carbamoyl)benzo [b]thiophen-5-yl)fluoromethyl) (phenoxy)phosphoryl)-O-methyl-L-serinate], the IC50 is less than 0.1 µM.

Consider `CCCOC(=O)[C@H](C)NP(=O)(Oc1ccccc1)[C@H](F)c1ccc2sc(C(=O)N[C@H]3C[C@@H](C)C[C@H]4CC[C@@H](C(=O)N5C[C@H](c6ccccc6)[C@@H](C#N)C56CC6)N4C3=O)cc2c1` (stereo partly drawn) [Compound 349, propyl (((S)-(2-(((3S,6S,8R,9aR)-3-((6S,7R)-7-cyano-6-phenyl-4-azaspiro[2.4]heptane-4-carbonyl)-8-methyl-5-oxooctahydro-1H-pyrrolo[1,2-a]azepin-6-yl)carbamoyl)benzo [b]thiophen-5-yl)fluoromethyl) (phenoxy)phosphoryl)-L-alaninate], for which the IC50 is less than 0.1 µM.

`C[C@H](NP(=O)(Oc1ccccc1)[C@H](F)c1ccc2sc(C(=O)N[C@H]3CCC[C@H]4CC[C@@H](C(=O)N5C[C@H](c6ccccc6)[C@@H](C#N)C56CC6)N4C3=O)cc2c1)C(=O)OC1CC1` (stereo partly drawn) [Compound 350, cyclopropyl (((S)-(2-(((3S,6S,9aS)-3-((6S,7R)-7-cyano-6-phenyl-4-azaspiro[2.4]heptane-4-carbonyl)-5-oxooctahydro-1H-pyrrolo[1,2-a]azepin-6-yl)carbamoyl)benzo [b]thiophen-5-yl)fluoromethyl) (phenoxy)phosphoryl)-L-alaninate] registered an IC50 of less than 0.1 µM.

`COCCOC(=O)[C@H](C)NP(=O)(Oc1ccccc1)[C@H](F)c1ccc2sc(C(=O)N[C@H]3CCC[C@H]4CC[C@@H](C(=O)N5C[C@H](c6ccccc6)[C@@H](C#N)C56CC6)N4C3=O)cc2c1` (stereo partly drawn) [Compound 351, 2-methoxyethyl (((S)-(2-(((3S,6S,9aS)-3-((6S,7R)-7-cyano-6-phenyl-4-azaspiro[2.4]heptane-4-carbonyl)-5-oxooctahydro-1H-pyrrolo[1,2-a]azepin-6-yl)carbamoyl)benzo [b]thiophen-5-yl)fluoromethyl) (phenoxy)phosphoryl)-L-alaninate] came in with an IC50 of less than 0.1 µM.
